Results on twelve molecules are retold here after PubChem BioAssay (NCI).

Each structure is given as a SMILES string. Values joined by “and” are separate entries in the source; they are usually repeats but may differ in a detail not shown here. Equal values may be shown once.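 Each compound was tested at five concentrations against cells in 96-well plates for 48 hours. GI50: concentration for 50% inhibition of growth. TGI: total growth inhibition.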

Some test systems named below: SR leukemia; OVCAR-3 ovarian; HCC-2998 colon; RXF 393 renal; K-562 leukemia; MALME-3M melanoma; HCT-15 colon; HOP-62 NSCLC.
What all share (experiment): DTP human tumour cell line panel, 48 h

On to `O=Nc1c(-c2c(O)[nH]c3cc(Br)ccc23)[nH]c2ccccc12`, for which the GI50 in the test with SR leukemia is 3.26 µM; with OVCAR-3 ovarian it was 0.648 µM; with HCC-2998 colon, 1.6 µM; with RXF 393 renal, 0.858 µM; in the test on K-562 leukemia, 1.19 µM; in the test on MALME-3M melanoma, 2.35 µM. The GI50 in the test on HCT-15 colon is 0.963 µM. In addition, the TGI with SR leukemia was 64.2 µM; with OVCAR-3 ovarian, 2.24 µM; in the test with HCC-2998 colon it was 3.08 µM; in the test on RXF 393 renal, 3.42 µM; in the test on K-562 leukemia, greater than 100 µM; in the test with MALME-3M melanoma it was 6.44 µM. Also, the TGI with HCT-15 colon came to 3.1 µM.
For `COc1cc(-c2nc3sc(C)cn3c2/C=C2\C(=O)Nc3ccccc32)c(Br)c(OC)c1OC`, the GI50 was 28.3 µM with SR leukemia; 22.9 µM in the test on OVCAR-3 ovarian; 29 µM in the test with HCC-2998 colon; 48.4 µM in the test on K-562 leukemia; 26.1 µM in the test with MALME-3M melanoma; 29.1 µM with HCT-15 colon. The GI50 with HOP-62 NSCLC was 26.5 µM. In addition, the TGI with SR leukemia was greater than 100 µM; with OVCAR-3 ovarian, 51 µM; in the test on HCC-2998 colon, 78 µM; in the test with K-562 leukemia, greater than 100 µM; with MALME-3M melanoma it was 78.5 µM; in the test on HCT-15 colon, greater than 100 µM. Moreover, in the test with HOP-62 NSCLC, the TGI was found to be 88.7 µM.
Take `O=C(NCCCl)Nc1cccnc1`: the TGI in the test on OVCAR-3 ovarian is 83.2 µM; in the test on HCC-2998 colon, 37.5 µM; with RXF 393 renal, greater than 100 µM; with K-562 leukemia, greater than 100 µM; with MALME-3M melanoma it was 7.4 µM; in the test with HCT-15 colon, 66.7 µM. The same molecule showed a TGI in the test with HOP-62 NSCLC greater than 100 µM.
For the molecule `CCCCCCn1c(SC)nc(COC(=O)NC)c1COC(=O)NC`, the TGI with SR leukemia is 71.7 µM; in the test on OVCAR-3 ovarian it was 33.5 µM; in the test with K-562 leukemia, greater than 100 µM; with HCT-15 colon, greater than 100 µM; in the test on HOP-62 NSCLC, 37.1 µM.
Regarding `COc1cc(CNCCN2C(=O)c3ccc4c5c(ccc(c35)C2=O)C(=O)N(CCNCc2cc(OC)c(OC)c(OC)c2)C4=O)cc(OC)c1OC`, the GI50 in the test on SR leukemia was 0.0973 µM; with OVCAR-3 ovarian, 0.174 µM; in the test on RXF 393 renal, 0.251 µM; in the test on K-562 leukemia, 0.147 µM; with HOP-62 NSCLC, 0.28 µM. In addition, the TGI is 0.311 µM in the test on SR leukemia; 0.548 µM in the test with OVCAR-3 ovarian; 0.902 µM with RXF 393 renal; 0.413 µM in the test with K-562 leukemia; 0.999 µM in the test on HOP-62 NSCLC.
For `O=C(COc1cccc(/C=C2\CSc3ccc(Cl)cc3C2=O)c1)c1ccc(Cl)cc1`, the GI50 with OVCAR-3 ovarian was 3.8 µM; with HCC-2998 colon, 10.7 µM; in the test with RXF 393 renal it was 14.1 µM; with K-562 leukemia, 1.83 µM; in the test on MALME-3M melanoma, 10.6 µM; in the test with HCT-15 colon, 1.8 µM. Besides, in the test on HOP-62 NSCLC, the GI50 is 22.1 µM. The TGI amounted to 13.6 µM in the test on OVCAR-3 ovarian; 22.6 µM with HCC-2998 colon; 34.3 µM with RXF 393 renal; 4.53 µM with K-562 leukemia; 23.9 µM in the test with MALME-3M melanoma; 3.9 µM in the test on HCT-15 colon. Also, the TGI with HOP-62 NSCLC was 72.7 µM.
As to `Cc1cnc2oc3ccc(O)cc3c2c1-c1ccccc1`, the GI50 was greater than 100 µM in the test with SR leukemia; 47.5 µM with OVCAR-3 ovarian; 18.5 µM with RXF 393 renal; greater than 100 µM in the test on K-562 leukemia; 32.5 µM in the test on MALME-3M melanoma; 27.2 µM in the test with HCT-15 colon. The GI50 with HOP-62 NSCLC is 27.3 µM. Further, the concentration for total growth inhibition (TGI) is greater than 100 µM with SR leukemia; greater than 100 µM in the test on OVCAR-3 ovarian; 67.3 µM with RXF 393 renal; greater than 100 µM with K-562 leukemia; greater than 100 µM in the test on MALME-3M melanoma; greater than 100 µM in the test on HCT-15 colon. The same molecule yielded a TGI in the test on HOP-62 NSCLC of 83.4 µM.
For the molecule `COc1cc(/C=C/c2cc(/C=C/c3ccc(O)c(OC)c3)n(C(=O)Nc3ccccc3Cl)n2)ccc1O`, the GI50 in the test with OVCAR-3 ovarian is 0.45 µM; in the test on HCC-2998 colon, 0.725 µM; in the test with RXF 393 renal it was 0.309 µM; in the test on K-562 leukemia, 0.301 µM; in the test on MALME-3M melanoma, 0.539 µM; in the test with HCT-15 colon, 0.332 µM. Besides, the GI50 in the test on HOP-62 NSCLC is 0.471 µM. Besides, the TGI with OVCAR-3 ovarian is 3.68 µM; in the test on HCC-2998 colon it was 5.72 µM; in the test on RXF 393 renal, 0.845 µM; in the test with K-562 leukemia it was 3.11 µM; with MALME-3M melanoma, 2.01 µM; in the test on HCT-15 colon, 4.15 µM. In the test with HOP-62 NSCLC, the TGI was found to be 1.78 µM.
As to `O=C1CC(c2ccccc2)Cc2nc3ccc(Br)cc3cc21` (configuration not stated), the GI50 is 0.0855 µM in the test with SR leukemia; 0.304 µM with OVCAR-3 ovarian; 1.57 µM in the test with HCC-2998 colon; 0.162 µM in the test on K-562 leukemia; 0.076 µM with MALME-3M melanoma; 0.476 µM with HCT-15 colon. For the same molecule, in the test on HOP-62 NSCLC, the GI50 was 0.526 µM. The TGI in the test with SR leukemia was greater than 36.8 µM; with OVCAR-3 ovarian, 1.14 µM; in the test on HCC-2998 colon, 16.8 µM; with K-562 leukemia it was greater than 100 µM; in the test on MALME-3M melanoma it was greater than 91.8 µM; with HCT-15 colon, greater than 100 µM. Besides, the TGI in the test with HOP-62 NSCLC is greater than 100 µM.
Turning to `COC(=O)[C@]12CC[C@@H](C)[C@H](C)[C@@H]1C1=CC[C@@H]3[C@@]4(C)C[C@@H](OC(=O)/C=C/c5ccccc5)[C@H](O)[C@@](C)(CO)[C@@H]4[C@H](O)C[C@@]3(C)[C@]1(C)CC2`, the GI50 in the test on OVCAR-3 ovarian was 1.98 µM; with HCC-2998 colon it was 2.13 µM; with RXF 393 renal, 1.74 µM; in the test on K-562 leukemia, 2.45 µM; with MALME-3M melanoma it was 2.84 µM; in the test with HCT-15 colon, 1.93 µM. Further, in the test with HOP-62 NSCLC, the GI50 is 1.91 µM. In addition, the TGI came to 4.53 µM with OVCAR-3 ovarian; 4.88 µM with HCC-2998 colon; 3.84 µM in the test with RXF 393 renal; 6.05 µM in the test with K-562 leukemia; 10.9 µM with MALME-3M melanoma; 4.02 µM in the test with HCT-15 colon. The TGI in the test with HOP-62 NSCLC came to 5.43 µM.
On to `COc1cccc(-c2cc(=O)c3cc(N4CCOCC4)ccc3[nH]2)c1`, for which the TGI in the test with SR leukemia was 0.741 µM; in the test on OVCAR-3 ovarian, 0.0412 µM; in the test on HCC-2998 colon, 0.433 µM and 0.0581 µM; with K-562 leukemia it was 0.179 µM; in the test with HCT-15 colon, 0.227 µM and 0.575 µM; in the test with HOP-62 NSCLC, greater than 100 µM. Also, the GI50 is 0.0236 µM in the test with HCC-2998 colon; 0.0267 µM with K-562 leukemia; 0.019 µM in the test with MALME-3M melanoma; 0.0328 µM in the test with HCT-15 colon; 0.0791 µM in the test with HOP-62 NSCLC.
`COc1cc(CC2c3cc(OC)c(OC)cc3CCN2C)ccc1O` (configuration not stated): the total growth inhibition concentration (TGI) in the test with OVCAR-3 ovarian, in the test with HCC-2998 colon, in the test on K-562 leukemia, in the test with MALME-3M melanoma, in the test on HCT-15 colon and in the test on HOP-62 NSCLC was greater than 100 µM in each case.
